The text below walks through data of PMC6010526, “In Silico Approaches Applied to the Study of Peptide Analogs of Ile-Pro-Ile in Relation to Their Dipeptidyl Peptidase IV Inhibitory Properties” (Frontiers in Endocrinology, 2018).

Series [1] relates to DPP-IV. The conditions noted are these: competitive inhibitory peptides used in QSAR model, cited from earlier work.
For series [2], the target named is T1, porcine DPP-IV (Sus scrofa, UniProt P22411). The experiment in a line: DPP-IV inhibition assay with Gly-Pro-pNA substrate. Type of series: biochemical. The arrangement: purchased Sigma Aldrich (Dublin, Ireland). Particulars: for IC50: porcine DPP-IV, Gly-Pro-pNA 0.200 mM, 37°C, n = 3, read-out: Experimental DPP-IV IC50. Here is the method:
Peptides were dispersed in HPLC grade water at 50 and 500 µM (final concentration). The DPP-IV inhibition assay was carried out in triplicate as outlined by Nongonierma and FitzGerald ([18]). Briefly, samples (25 μL) were mixed with Gly-Pro-pNA (final concentration 0.200 mM) and DPP-IV (final concentration 0.0025 U mL^−1) in a 96-well microplate (Sarstedt, Dublin, Ireland). The microplate was incubated at 37°C for 60 min in a microplate reader (Biotek Synergy HT, Winooski, VT, USA) and absorbance was monitored at 405 nm.
Dose–response curves were determined for peptides displaying a percentage of inhibition > 50% at 500 µM. Peptides were diluted in HPLC water at concentrations ranging from 0.37 to 500 µM (final concentration). The DPP-IV IC50 values were determined by plotting the percentage inhibition as a function of the test compound concentration. Each analysis was carried out in triplicate (n = 3).

For series [3], the target named is T1, porcine DPP-IV. The experiment in a line: Stability of peptides to hydrolysis by DPP-IV (LC-MS/MS). Particulars: for Hydrolysis by DPP-IV (stability), in words: 30 min incubation with DPP-IV; for Peptide hydrolyzed by DPP-IV: peptide at 1/4 of IC50, 30 min at 37°C, Tris-HCl buffer pH 8.0.
Experimental: Stability of the peptides to hydrolysis by DPP-IV was evaluated by liquid chromatography tandem mass spectrometry (LC-MS/MS) using the samples generated during the Lineweaver and Burk analysis containing DPP-IV inhibitory peptides at their IC50 values divided by 4 as previously described ([24]). Following the 30 min reaction, DPP-IV was heat inactivated by immersing samples in a water bath set at 90°C for 20 min. Test samples were subsequently diluted 40 times in mobile phase A (0.1% FA in MS water). Intact peptides were analyzed at the same concentration as the test samples. The peptide composition of the samples was determined as described previously ([25]). Briefly, an ultra-high performance liquid chromatography (UHPLC) UltiMate 3000 (Dionex, Camberley, Surrey, UK) fitted with a security guard UHPLC C18 PEPTIDE (2.1 mm, Phenomenex, Cheshire, UK) and an Aeris Peptide XB-C18 column (150 mm × 2.1 mm, 1.7 µm, Phenomenex) was used for peptide separation at 25°C. A sample volume of 2 µL was injected with a solvent delay of 4 min. The UHPLC was coupled to a quadrupole time-of-flight mass spectrometer (Q-TOF, Impact HD™, Bruker Daltonics GmbH, Bremen, Germany) using a 50–600 m/z acquisition range. The MS was fitted with an electrospray ionization source used in positive ion mode. Data acquisition was performed with Hystar software (Bruker Daltonics). Data analysis was performed with Compass Data Analysis 4.2 (Bruker Daltonics).
For series [4], the target named is human dipeptidyl peptidase IV. The arrangement: method as in PMID 24512990. The conditions noted are these: most potent peptide of Trp-Arg-Xaa library; ref [14]; read-out: DPP-IV IC50; cited from earlier work.
The test system of series [5] is DPP-IV. The conditions noted are these: cited from earlier work.
The conditions of series [6]: cited from earlier work.
Series [7] deals with DPP-IV. On the set-up: method as in PMID 1671823. Particulars: after 36 min incubation; ref [47]; cited from earlier work.

Like-named read-outs stand apart in the source and are kept apart here. Residues, ends and D or L forms follow the SMILES beside them. A value given as a limit tells only on which side of the number the result lay.

T1 sequence (P22411 whole entry): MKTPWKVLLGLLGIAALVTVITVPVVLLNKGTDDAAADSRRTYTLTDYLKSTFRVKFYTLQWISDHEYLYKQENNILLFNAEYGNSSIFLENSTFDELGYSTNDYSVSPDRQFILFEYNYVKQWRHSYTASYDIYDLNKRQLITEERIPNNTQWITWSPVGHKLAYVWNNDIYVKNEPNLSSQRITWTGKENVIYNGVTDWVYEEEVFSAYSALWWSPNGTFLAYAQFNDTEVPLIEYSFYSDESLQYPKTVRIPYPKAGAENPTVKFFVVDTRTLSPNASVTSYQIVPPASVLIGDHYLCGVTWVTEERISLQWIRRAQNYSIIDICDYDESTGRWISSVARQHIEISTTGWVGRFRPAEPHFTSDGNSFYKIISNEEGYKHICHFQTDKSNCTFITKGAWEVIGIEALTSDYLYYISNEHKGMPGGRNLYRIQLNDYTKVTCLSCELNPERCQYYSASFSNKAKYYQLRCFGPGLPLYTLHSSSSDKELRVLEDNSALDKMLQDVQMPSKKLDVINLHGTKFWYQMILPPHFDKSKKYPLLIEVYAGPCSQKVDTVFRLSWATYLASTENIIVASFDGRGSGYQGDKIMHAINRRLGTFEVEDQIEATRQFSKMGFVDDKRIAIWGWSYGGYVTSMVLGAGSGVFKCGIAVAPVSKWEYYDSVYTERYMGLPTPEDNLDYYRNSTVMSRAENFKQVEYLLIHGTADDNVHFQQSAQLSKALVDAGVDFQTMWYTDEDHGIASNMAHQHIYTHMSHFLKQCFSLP

As to LPLPL, the IC50 (in general, the point on the concentration scale where inhibition reaches its midpoint) in the series on DPP-IV [1] (ref [21]) is 325 µM.

Take Glu-Lys [EK]: the IC50 with DPP-IV [1] (ref [18]) was 3220 µM.

Take VPGEIVE: the IC50 in the series with DPP-IV [1] (ref [17]) was 224 µM.

For the compound `CC[C@H](C)[C@H](N)C(=O)N1CCC[C@H]1C(=O)N[C@@H](Cc1c[nH]c2ccccc12)C(=O)O` [IPW, Ile-Pro-Trp] (H-Ile-Pro-Trp-OH; N-terminus and C-terminus assumed), the IC50 on porcine DPP-IV [2] stood at 175 ± 5.5 µM. Besides, on porcine DPP-IV [3], the “Hydrolysis by DPP-IV (stability), in words” value (from here on “Hydrolysis by DPP-IV”) is “partly hydrolyzed by DPP-IV” and the “Peptide hydrolyzed by DPP-IV” value is recorded as “YES”.

For `C[C@H](N)C(=O)N1CCC[C@H]1C(=O)N[C@@H](Cc1ccccc1)C(=O)O` [APF, Ala-Pro-Phe] (H-Ala-Pro-Phe-OH; N-terminus and C-terminus assumed), the inhibition (commonly the change of the read-out against control, counted positive when it falls) at 500 µM on porcine DPP-IV [2] (peptide at 500 µM) was greater than 65%. Also, the concentration for half-maximal inhibition (IC50) at porcine DPP-IV [2] was found to be 65.8 ± 5.5 µM. Besides, at porcine DPP-IV [3], the “Hydrolysis by DPP-IV” value is on record as “not hydrolyzed by DPP-IV” and the “Peptide hydrolyzed by DPP-IV” value is “NO”.

As for `C[C@H](N)C(=O)N1CCC[C@H]1C(=O)N[C@@H](CCCNC(=N)N)C(=O)O` [APR, Ala-Pro-Arg] (H-Ala-Pro-Arg-OH; N-terminus and C-terminus assumed), the inhibition at 500 µM at porcine DPP-IV [2] (peptide at 500 µM) was greater than 65%. The IC50 at porcine DPP-IV [2] is 120 ± 3.5 µM. For the same compound, at porcine DPP-IV [3], the “Hydrolysis by DPP-IV” value was “not hydrolyzed by DPP-IV” and the “Peptide hydrolyzed by DPP-IV” value is “NO”.

For the compound LPVP, the half-maximal inhibitory concentration (IC50) in the series on DPP-IV [1] (ref [24]) was 87 µM.

As to `N[C@@H](Cc1ccccc1)C(=O)N1CCC[C@H]1C(=O)N[C@@H](Cc1ccccc1)C(=O)O` [FPF, Phe-Pro-Phe] (H-Phe-Pro-Phe-OH; N-terminus and C-terminus assumed), at porcine DPP-IV [2] (peptide at 500 µM), the inhibition at 500 µM was determined as 62.9 ± 10.1%. Further, the IC50 at porcine DPP-IV [2] was 247 ± 32.7 µM. For the same compound, on porcine DPP-IV [3], the “Hydrolysis by DPP-IV” value is “partly hydrolyzed by DPP-IV” and the “Peptide hydrolyzed by DPP-IV” value is “YES”.

For `CC[C@H](C)[C@H](N)C(=O)N1CCC[C@H]1C(=O)N[C@@H](Cc1ccccc1)C(=O)O` [IPF, Ile-Pro-Phe] (H-Ile-Pro-Phe-OH; N-terminus and C-terminus assumed), the IC50 at porcine DPP-IV [2] turned out to be 47.3 ± 12.3 µM. On porcine DPP-IV [3], the “Hydrolysis by DPP-IV” value is “partly hydrolyzed by DPP-IV” and the “Peptide hydrolyzed by DPP-IV” value is recorded as “YES”.

With `CC[C@H](C)[C@H](N)C(=O)N[C@@H](CCCNC(=N)N)C(=O)N[C@@H](Cc1ccccc1)C(=O)O` [IRF, Ile-Arg-Phe] (H-Ile-Arg-Phe-OH; N-terminus and C-terminus assumed), at porcine DPP-IV [2] (peptide at 500 µM), the inhibition at 500 µM is less than 25%.

Trp-Arg-Glu: the IC50 in series [4] was 350 µM.

As to Val-Pro-Leu [VPL], the “times more potent than other food protein-derived peptides” value in the series with DPP-IV [5] (DPP-IV inhibition, ref [5]) was greater than 2 times. Besides, the Mode of inhibition result with DPP-IV [5] (Table S1, ref (2,3) of supplement) is given as “competitive”. The IC50 with DPP-IV [5] (ref [8]) was 15.8 µM.

In the case of `N[C@@H](Cc1c[nH]c2ccccc12)C(=O)N1CCC[C@H]1C(=O)N[C@@H](Cc1ccccc1)C(=O)O` [WPF, Trp-Pro-Phe] (H-Trp-Pro-Phe-OH; N-terminus and C-terminus assumed), on porcine DPP-IV [2], the IC50 was determined as 160 ± 12.8 µM. Also, at porcine DPP-IV [3], the “Hydrolysis by DPP-IV” value is recorded as “partly hydrolyzed by DPP-IV” and the “Peptide hydrolyzed by DPP-IV” value is on record as “YES”.

As for Ile-Pro-Pro, the “Identification in human sera” value in series [6] (following ingestion of a milk beverage enriched in lactotripeptides, ref [39]) is on record as “identified in human sera”.

Consider LLQLEAIR, for which the IC50 in the series with DPP-IV [1] (ref [24]) is 178 µM.

In the case of `CC[C@H](C)[C@H](N)C(=O)N1CCC[C@H]1C(=O)N[C@@H](C)C(=O)O` [IPA, Ile-Pro-Ala] (H-Ile-Pro-Ala-OH; N-terminus and C-terminus assumed), the inhibition at 500 µM on porcine DPP-IV [2] (peptide at 500 µM) was greater than 65%. Also, the IC50 at porcine DPP-IV [2] was determined as 28.3 ± 3.4 µM. In addition, at porcine DPP-IV [3], the “Hydrolysis by DPP-IV” value was “not hydrolyzed by DPP-IV” and the “Peptide hydrolyzed by DPP-IV” value was “NO”.

With `C[C@H](NC(=O)[C@@H]1CCCN1C(=O)[C@@H](N)CCCCN)C(=O)O` [KPA, Lys-Pro-Ala] (H-Lys-Pro-Ala-OH; N-terminus and C-terminus assumed), the inhibition at 500 µM at porcine DPP-IV [2] (peptide at 500 µM) is greater than 65%. For the same compound, the IC50 on porcine DPP-IV [2] turned out to be 74.5 ± 7 µM. On porcine DPP-IV [3], the “Hydrolysis by DPP-IV” value is “not hydrolyzed by DPP-IV” and the “Peptide hydrolyzed by DPP-IV” value is “NO”.

With LPVPQ, in the series on DPP-IV [1] (ref [17]), the IC50 was 43.7 µM.

As to Val-Pro-Pro, the “Identification in human sera” value in series [6] (in vivo) is “identified in human sera”.

Turning to `N=C(N)NCCC[C@H](NC(=O)[C@H](CCCCN)NC(=O)[C@@H](N)CCCNC(=N)N)C(=O)O` [RKR, Arg-Lys-Arg] (H-Arg-Lys-Arg-OH; N-terminus and C-terminus assumed), the inhibition at 500 µM on porcine DPP-IV [2] (peptide at 500 µM) was less than 25%.

For `CC[C@H](C)[C@H](N)C(=O)N[C@@H](CCCNC(=N)N)C(=O)N[C@@H](CCCCN)C(=O)O` [IRK, Ile-Arg-Lys] (H-Ile-Arg-Lys-OH; N-terminus and C-terminus assumed), the inhibition at 500 µM on porcine DPP-IV [2] (peptide at 500 µM) is less than 25%.

With LPYPY, the IC50 with DPP-IV [1] (ref [21]) is 108 µM.

Turning to `N[C@@H](Cc1ccccc1)C(=O)N1CCC[C@H]1C(=O)N[C@@H](Cc1c[nH]c2ccccc12)C(=O)O` [FPW, Phe-Pro-Trp] (H-Phe-Pro-Trp-OH; N-terminus and C-terminus assumed), at porcine DPP-IV [2], the IC50 came to 54.9 ± 2.9 µM. Besides, on porcine DPP-IV [3], the “Hydrolysis by DPP-IV” value is “partly hydrolyzed by DPP-IV” and the “Peptide hydrolyzed by DPP-IV” value was “YES”.

For the compound MPVQA, in the series on DPP-IV [1] (ref [24]), the concentration for half-maximal inhibition (IC50) is 93.3 µM.

Turning to IPIQY, in the series with DPP-IV [1] (ref [21]), the IC50 is 35.2 µM.

With `N[C@@H](Cc1c[nH]c2ccccc12)C(=O)N1CCC[C@H]1C(=O)N[C@@H](Cc1c[nH]c2ccccc12)C(=O)O` [WPW, Trp-Pro-Trp] (H-Trp-Pro-Trp-OH; N-terminus and C-terminus assumed), on porcine DPP-IV [2], the IC50 is 120 ± 13.1 µM. Besides, on porcine DPP-IV [3], the “Hydrolysis by DPP-IV” value was “partly hydrolyzed by DPP-IV” and the “Peptide hydrolyzed by DPP-IV” value is reported as “YES”.

For the compound `CC[C@H](C)[C@H](N)C(=O)N1CCC[C@H]1C(=O)N[C@H](C(=O)O)[C@@H](C)CC` [IPI, Ile-Pro-Ile], the “initial amount cleaved by DPP-IV” value with DPP-IV [7] is given as 37%. At porcine DPP-IV [2] (peptide at 500 µM), the inhibition at 500 µM is greater than 65%.

For `CC[C@H](C)[C@H](N)C(=O)N[C@@H](C)C(=O)N[C@H](C(=O)O)[C@@H](C)CC` [IAI, Ile-Ala-Ile] (H-Ile-Ala-Ile-OH; N-terminus and C-terminus assumed), on porcine DPP-IV [2] (peptide at 500 µM), the inhibition at 500 µM was found to be 9.6 ± 1.9%. The “% DPP-IV inhibition” value at porcine DPP-IV [2] (peptide at 500 µM, 500 µM) is less than 10%.

Consider `C[C@H](N)C(=O)N1CCC[C@H]1C(=O)N[C@@H](C)C(=O)O` [APA, Ala-Pro-Ala] (H-Ala-Pro-Ala-OH; N-terminus and C-terminus assumed), for which the inhibition at 500 µM at porcine DPP-IV [2] (peptide at 500 µM) is greater than 65%. For the same compound, the IC50 at porcine DPP-IV [2] was found to be 44.3 ± 3.2 µM. Further, at porcine DPP-IV [3], the “Hydrolysis by DPP-IV” value is given as “not hydrolyzed by DPP-IV” and the “Peptide hydrolyzed by DPP-IV” value was “NO”.

On to LPQNIPPLT, for which the IC50 in the series with DPP-IV [1] (ref [17]) is 205 µM.
